In patent US11077128B2, “Selective inhibitors of Alpha2-containing isoforms of Na,K-ATPase and use thereof for reduction of intraocular pressure” (Yeda Research and Development Co. Ltd., priority 2015, dated 2021):

Assays:
Experiment in all cases: biochemical
[1] = target: human Na,K-ATPase α2β3FXYD1 (Homo sapiens (Human), UniProt P50993); format: biochemical
[2] = target: human Na,K-ATPase α2β2FXYD1 (Homo sapiens (Human), UniProt P50993)
[3] = target: human Na,K-ATPase α2β1FXYD1 (Homo sapiens, UniProt P50993); format: biochemical
[4] = target: human Na,K-ATPase α1β1FXYD1 (Homo sapiens (Human), UniProt P05023)

Row | Compound | Ki [1] [nM] | Ki reduced compared to digoxin [1] | Ki [2] [nM] | Ki [3] [nM] | Ki [4] [nM]
1 | CC1CN(C2CCC2)CCC(O[C@@H]2C(C)O[C@@H](OC3C(C)OC(O[C@H]4CC[C@@]5(C)C(CCC6C5CC[C@]5(C)[C@@H](C7=CC(=O)OC7)CC[C@]65O)C4)C[C@@H]3O)C[C@@H]2O)O1 (stereo in doubt) [DtxcB, 4-((3S,5R,8R,9S,10S,13R,14S,17R)-3-(((2S,4S,5R,6R)-5-(((2S,4S,5S,6R)-5-((4-cyclobutyl-2-methyl-1,4-oxazepan-7-yl)oxy)-4-hydroxy-6-methyltetrahydro-2H-pyran-2-yl)oxy)-4-hydroxy-6-methyltetrahydro-2H-pyran-2-yl)oxy)-14-hydroxy-10,13-dimethylhexadecahydro-1H-cyclopenta[a]phenanthren-17-yl)furan-2(5H)-one] | 4.3 ± 0.6 | about 10 fold | 5.3 ± 0.8 | 5.4 ± 0.5 | 30.7 ± 7.2
2 | CC1CN(CC2CC2)CCC(O[C@@H]2C(C)O[C@@H](OC3C(C)OC(O[C@H]4CC[C@@]5(C)C(CCC6C5CC[C@]5(C)[C@@H](C7=CC(=O)OC7)CC[C@]65O)C4)C[C@@H]3O)C[C@@H]2O)O1 (stereo in doubt) [DtxMcP, 4-((3S,5R,8R,9S,10S,13R,14S,17R)-3-(((2S,4S,5R,6R)-5-(((2S,4S,5S,6R)-5-((4-(cyclopropylmethyl)-2-methyl-1,4-oxazepan-7-yl)oxy)-4-hydroxy-6-methyltetrahydro-2H-pyran-2-yl)oxy)-4-hydroxy-6-methyltetrahydro-2H-pyran-2-yl)oxy)-14-hydroxy-10,13-dimethylhexadecahydro-1H-cyclopenta[a]phenanthren-17-yl)furan-2(5H)-one] | 3.7 ± 0.5 | about 10 fold | 5.4 ± 1.2 | 4.2 ± 0.4 | 25 ± 4
